Results reported in patent US8470800B2, “Method of reducing intraocular pressure in humans” (Inotek Pharmaceuticals Corporation, priority 2009, dated 2013).

How the values were obtained:
[1] = Clinical study: single topical ocular dose, intraocular pressure in adults with OHT or POAG; format: in vivo, human; conditions: for IOP difference from the placebo response: 2 hours postdose
Description: The clinical study described herein is a multi-center, randomized, double-blind, placebo-controlled, dose-escalation study of a single topical ocular application of the study drug (i.e., Compound A or placebo) to the one study eye of adults with OHT or POAG. The “study eye” was defined as the eye with the higher mean IOP, recorded between 7:00 and 8:00 AM on the day prior to dosing (Day 0).
The adult subjects were sequentially assigned to 1 of 7 treatment groups.
Masked-intraocular pressures were determined in duplicate with a Goldmann tonometer following traditional corneal anesthesia. […] Subsequent bilateral external eye examinations and masked-IOP determinations were performed at 9:00 AM, 10:00 AM, 12:00 noon, and 2:00 PM (each ±5 minutes), corresponding to 1, 2, 4, and 6 hours post study drug application. In addition in the 700 mcg cohort an IOP determination was performed at 6:00 PM (18:00), corresponding to 10 hours post study drug application.
The study drug was only administered to one eye per subject (the study eye). Dosages ranged from 2.5 micrograms to 350 micrograms per 50 microliter drop, per respective treatment group. A board-certified ophthalmologist (or comparably trained designee) administered the study drug. Randomized enrollment of subjects into each successive treatment groups was predicated upon the review and approval of the safety data from the completed treatment groups by the Safety Research Committee, consisting of three qualified physicians (i.e., an internist, cardiologist, and ophthalmologist).

[2] = biological target: human A1 adenosine receptor (Homo sapiens (Human), UniProt P30542); assay: Inhibition of forskolin-stimulated adenylyl cyclase activity via A1 receptor; format: biochemical; conditions: membranes of CHO cells stably transfected with human A1 receptor
Experimental: (§1) The A1 and A3 receptor-mediated inhibition of forskolin-stimulated adenylyl cyclase activity was tested in membranes prepared from CHO cells stably transfected with the human A1 and A3 adenosine receptors. The A2a and A2b receptor-mediated stimulation of basal cyclase activity was tested in membranes prepared from CHO cells stably transfected with the human A2a and […] adenosine receptors
(§2) Adenylyl Cyclase Inhibition Via Human Adenosine A1 and A3 Receptors

A3 adenosine receptor [3] = biological target: T1, A3 adenosine receptor (Homo sapiens (Human), UniProt P0DMS8); assay: Adenosine receptor binding selectivity A1 > A3; conditions: ratio of Ki values
Experimental: (§3) As used herein, the term “selective adenosine A1 agonist” means an A1 agonist that has a high affinity to the A1 receptor while simultaneously having a low affinity for the A2 and A3 adenosine receptors.
(§4) Membranes for radioligand binding experiments are prepared from fresh or frozen cells as described in Klotz et al., Naunyn-Schmiedeberg's Arch. […] The cell suspension is then homogenized in ice-cold hypotonic buffer (5 mM Tris/HCl, 2 mM EDTA, pH 7.4) and the homogenate is spun for 10 minutes (4° C.) at 1,000 g.
(§5) Nonspecific binding is determined in the presence of 100 μM R-PM and 1 mM theophylline, respectively. For details see Klotz et al., Naunyn-Schmiedeberg's Arch.

A2A adenosine receptor = A2A adenosine receptor (Homo sapiens (Human), UniProt P29274); assay: Adenosine receptor binding selectivity A1 > A2A; conditions: ratio of Ki values
Experimental: as §3, §4, §5

A3 adenosine receptor [4] = biological target: T1, A3 adenosine receptor; assay: Inhibition of forskolin-stimulated adenylyl cyclase activity via A3 receptor; format: biochemical; conditions: membranes of CHO cells stably transfected with human A3 receptor
Experimental: as §1, §2

Chain of A2A adenosine receptor (P29274 whole entry): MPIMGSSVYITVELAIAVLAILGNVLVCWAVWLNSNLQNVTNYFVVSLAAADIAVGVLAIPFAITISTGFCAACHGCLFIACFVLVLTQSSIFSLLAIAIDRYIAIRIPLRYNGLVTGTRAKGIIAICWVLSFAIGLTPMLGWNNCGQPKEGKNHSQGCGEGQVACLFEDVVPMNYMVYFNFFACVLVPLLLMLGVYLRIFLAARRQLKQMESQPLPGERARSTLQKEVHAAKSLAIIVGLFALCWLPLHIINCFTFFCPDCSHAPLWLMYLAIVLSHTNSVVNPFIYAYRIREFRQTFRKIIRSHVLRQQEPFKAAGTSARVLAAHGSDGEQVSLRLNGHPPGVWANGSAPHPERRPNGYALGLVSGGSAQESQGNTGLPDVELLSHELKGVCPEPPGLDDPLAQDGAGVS
Chain of human A1 adenosine receptor (P30542 whole entry): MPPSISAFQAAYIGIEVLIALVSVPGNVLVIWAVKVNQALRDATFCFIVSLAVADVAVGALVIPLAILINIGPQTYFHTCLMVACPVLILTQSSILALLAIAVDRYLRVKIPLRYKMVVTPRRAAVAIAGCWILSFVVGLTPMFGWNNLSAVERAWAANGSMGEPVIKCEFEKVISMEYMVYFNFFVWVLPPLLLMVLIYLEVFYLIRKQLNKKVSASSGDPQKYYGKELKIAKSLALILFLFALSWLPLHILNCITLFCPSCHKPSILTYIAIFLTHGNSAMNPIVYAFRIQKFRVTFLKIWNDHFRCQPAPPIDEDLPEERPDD
T1 sequence (P0DMS8 whole entry): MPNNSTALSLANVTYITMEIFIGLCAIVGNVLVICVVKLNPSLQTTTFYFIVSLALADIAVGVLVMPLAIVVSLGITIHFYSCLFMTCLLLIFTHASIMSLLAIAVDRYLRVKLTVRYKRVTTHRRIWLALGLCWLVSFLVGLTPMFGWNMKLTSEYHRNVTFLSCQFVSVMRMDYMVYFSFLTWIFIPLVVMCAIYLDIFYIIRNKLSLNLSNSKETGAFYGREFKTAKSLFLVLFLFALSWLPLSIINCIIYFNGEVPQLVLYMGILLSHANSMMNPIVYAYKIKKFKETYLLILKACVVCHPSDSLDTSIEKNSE

With `O=[N+]([O-])OC[C@H]1O[C@@H](n2cnc3c(NC4CCCC4)ncnc32)[C@H](O)[C@@H]1O` [Compound A, ((2R,3S,4R,5R)-5-(6-(cyclopentylamino)-9H-purin-9-yl)-3,4-dihydroxytetrahydrofuran-2-yl)methyl nitrate] the “IOP difference from the placebo response” value ([1]; 350 mcg treatment group) was “Statistically significant differences from the placebo response”, the “duration of the decrease in IOP” value ([1]; 350 mcg treatment group, entire observation period) was ~6 h and the “IOP difference from the placebo response” value ([1]; 700 mcg treatment group) was “Statistically significant differences from the placebo response”. The “dose group with % of subjects achieving greatest IOP decrement (responder analysis)” value ([1]; across 7 dose groups) was 350 µg, the “dose with largest mean and median decreases in IOP” value ([1]; across 7 dose groups 2.5-700 mcg) was 350 µg and the “decrement in IOP from the Day 1 pre-dose baseline” value ([1]; single topical ocular dose 2.5-700 mcg, study eye, OHT or POAG) was “Dose-related decrement in IOP”. The “responder analysis: subjects with categorical mean IOP decreases from baseline of ≧10%, ≧15% or ≧20%” value ([1]; throughout the observation period (~6 hrs)) was “showed a dose-response”, the “time post-dose of largest difference in IOP between drug-treated and placebo-treated eyes” value ([1]; topical ocular doses, human subjects) was “approximately 2 hours” and the EC50 [2] was 17 nM.

In the case of `O=S(=O)([O-])OC[C@H]1O[C@@H](n2cnc3c(NC4CCCC4)ncnc32)[C@H](O)[C@@H]1O.[Na+]` [Compound C, sodium ((2R,3S,4R,5R)-5-(6-(cyclopentylamino)-9H-purin-9-yl)-3,4-dihydroxytetrahydrofuran-2-yl)methyl sulfate], the “A1 > A3 SELECTIVITY [KiA3(nm)/KiA1(nm)]” value (A3 adenosine receptor [3]) is reported as 251 and the “A1 > A2A SELECTIVITY [KiA2(nm)/KiA1(nm)]” value (A2A adenosine receptor) is reported as 2250.

With `O=[N+]([O-])OC[C@H]1O[C@@H](n2cnc3c(NC4CCOC4)ncnc32)[C@H](O)[C@@H]1O` (stereo partly drawn) [Compound D, ((2R,3S,4R,5R)-3,4-dihydroxy-5-(6-(tetrahydrofuran-3-ylamino)-9H-purin-9-yl)tetrahydrofuran-2-yl)methyl nitrate] the “A1 > A3 SELECTIVITY [KiA3(nm)/KiA1(nm)]” value (A3 adenosine receptor [3]) was 202 and the “A1 > A2A SELECTIVITY [KiA2(nm)/KiA1(nm)]” value (A2A adenosine receptor) was >9434.

For `O=[N+]([O-])OC[C@H]1O[C@@H](n2cnc3c(NC4CCCCC4)ncnc32)[C@H](O)[C@@H]1O` [Compound E, ((2R,3S,4R,5R)-5-(6-(cyclohexylamino)-9H-purin-9-yl)-3,4-dihydroxytetrahydrofuran-2-yl)methyl nitrate], the “A1 > A3 SELECTIVITY [KiA3(nm)/KiA1(nm)]” value (A3 adenosine receptor [3]) was 1098, the “A1 > A2A SELECTIVITY [KiA2(nm)/KiA1(nm)]” value (A2A adenosine receptor) was 878 and the EC50 (A3 adenosine receptor [4]) was > 100000 nM. The EC50 [2] was 29 nM.

With `O=[N+]([O-])OC[C@H]1O[C@@H](n2cnc3c(NC4CC5CCC4C5)ncnc32)[C@H](O)[C@@H]1O` (stereo partly drawn) [Compound F, ((2R,3S,4R,5R)-5-(6-(bicycle-[2.2.1]-heptan-2-ylamino)-9H-purin-9-yl)-3,4-dihydroxytetrahydrofuran-2-yl)methyl nitrate] the “A1 > A3 SELECTIVITY [KiA3(nm)/KiA1(nm)]” value (A3 adenosine receptor [3]) was 260 and the “A1 > A2A SELECTIVITY [KiA2(nm)/KiA1(nm)]” value (A2A adenosine receptor) was 3945.

For `O=S(=O)([O-])OC[C@H]1O[C@@H](n2cnc3c(NC4CCCCC4)nc(Cl)nc32)[C@H](O)[C@@H]1O.[Na+]` [Compound G, sodium ((2R,3S,4R,5R)-5-(2-chloro-6-(cyclohexylamino)-9H-purin-9-yl)-3,4-dihydroxytetrahydrofuran-2-yl)methyl sulfate], the “A1 > A3 SELECTIVITY [KiA3(nm)/KiA1(nm)]” value (A3 adenosine receptor [3]) was 130, the “A1 > A2A SELECTIVITY [KiA2(nm)/KiA1(nm)]” value (A2A adenosine receptor) was 200 and the EC50 (A3 adenosine receptor [4]) was > 100000 nM. It also gave an EC50 [2] of 19 nM.
